The values below come from patent publication US20100240595A1, “Improved Antitumoral Treatments” (PHARMA MAR ,S.A., priority 2007, published 2010).

Starred links: 1 amine or outer side, 2 acyl side, 3 side chain; linkers in the order of their positions; H or OH if unused. Positions of bridges follow the written chain, without caps; N, C: chain ends. Non-standard residues stand in square brackets, D forms with d. Residues, ends and D or L forms follow the SMILES beside them. *: point of attachment. X1 = CC[C@H](C)[C@@H](N[*:1])[C@@H](O)CC(=O)O[C@H](C(=O)[C@H](C)C(=O)[*:2])C(C)C; NMeY = CN[C@@H](Cc1ccc(O)cc1)C(=O)O; dNMeL = CN[C@H](CC(C)C)C(=O)O; Pyruvoyl = CC(=O)C(=O)*

The test system of series [1] is MIA PaCa-2 cell line. Description: In vitro cytotoxicity, MTS/PMS assay, single agents. Format: cell-based. The note with it: Homo sapiens; MIA PaCa-2, 96 hours exposure, MTS/PMS viability. On the procedure: (§1) PANC-1 (ATCC CRL-1469) and MIA PaCa-2 (ATCC CRL-1420) cell lines obtained from ATCC (Rockville, Md.) were used to check the cytotoxicity of Aplidine and Gemcitabine hydrochloride salt in human pancreas carcinoma cell lines. These cell lines were maintained in Dulbecco's modified Eagle medium with 4 mmol/L glutamine containing 10% Fetal Bovine Serum (FBS), and 1% Penicillin/Streptomycin solution, at 37° C. in humidified atmosphere of 5% CO2.
(§2) Four thousand cells/well were plated in a 96/wells tissue culture plate and exposed to different concentrations of Aplidine or Gemcitabine for 96 hours at 37° C. and 5% CO2. At the end of the incubation the viability of the cells was tested with the MTS/PMS assay (Riss T L and Moravec R A, Mol. Biol. Cell, 1992, 3, 184a). Cell viability was correlated to the amount of formazan quantified spectrophotometrically at 450 nm (reference wavelength 670 nm) using a microplate reader (SpectraMax® Plus^384, Molecular Devices, Sunnyvale, Calif.).

The subject of series [2] is PANC-1 cell line. The description is as above. Format: cell-based. The note with it: Homo sapiens; PANC-1, 96 hours exposure, MTS/PMS viability. On the procedure:
as §1, §2

For series [3], the system named is PANC-1 cells. Nature of the series: Pancreatic cancer xenograft model, tumor volume. The series is classed as in vivo, NCR Nu/Nu mice. The note with it: median tumor volume.
Text: Pathogen-free NCR Nu/Nu mice, of 5 to 6 weeks old and purchased from Taconic Farms (Germantown, N.Y.), were housed in microisolator cages under specific pathogen-free conditions. The animals were provided autoclaved food and water ad libitum.
Mice were inoculated subcutaneously in the right flank with 0.5×10^7 PANC-1 cells containing 10% matrigel.
As mentioned before, the vehicle used for the administration of Aplidine contained 15% Cremophor EL/15% Ethanol/70% WFI diluted in saline, whereas Gemcitabine was prepared in saline in order to be administered.
Both drugs were administered intra-peritoneally. […] Tumor size and weight of the animals were recorded every other day, starting from the first day of treatment. Tumor volume was calculated according to the formula:
tumor volume (mm^3)=(longer diameter)×[(shorter diameter)^2]/2.
Comparison of the median tumor volume in the treatment groups (T) to the median tumor volume in the control group (C) [T/C] on day 20 was used for evaluation of tumor efficacy. % T/C [T/C×100%] for each treatment is reported in Table 3.
In series [4] the test system is AML and ALL samples from pediatric patients. As to conditions: 5 nM; de novo or relapsed ALL and AML; cited from earlier work.

With `Nc1ccn([C@@H]2O[C@H](CO)[C@@H](O)C2(F)F)c(=O)n1` [Gemcitabine, reference compound], the IC50 in series [1] turned out to be 150 nM; in series [2] it was 1000 nM. Also, in series [3] (Gemcitabine 250 mg/kg on day 1, 4, 8 & 12, intra-peritoneally), the “% T/C on day 20” value came out at 45%.

For `CC[C@H](C)[C@H]1NC(=O)[C@@H](NC(=O)[C@@H](CC(C)C)N(C)C(=O)[C@@H]2CCCN2C(=O)C(C)=O)[C@@H](C)OC(=O)[C@H](Cc2ccc(OC)cc2)N(C)C(=O)[C@@H]2CCCN2C(=O)[C@H](CC(C)C)NC(=O)[C@@H](C)C(=O)[C@H](C(C)C)OC(=O)C[C@@H]1O` [Aplidine] (Pyruvoyl-P[dNMeL]T[X1]LP[NMeY](Me); ester 3-C), the “In vitro cytotoxic activity” value in series [4] is given as “cytotoxic activity”. In addition, the IC50 in series [1] and in series [2] was 1 nM each time. Besides, the “% T/C on day 20” value in series [3] (Aplidine 0.6 mg/kg on day 1 and 8, intra-peritoneally) is given as 23%.
